Laboratory results as given in PMC9635472, “Design, synthesis, and biological evaluation of novel ciprofloxacin derivatives as potential anticancer agents targeting topoisomerase II enzyme” (Journal of Enzyme Inhibition and Medicinal Chemistry, 2022).

Key:
[1] = test system: Human bladder cancer (T-24) cell line; assay: MTT cell viability assay, T-24 cells; format: cell-based; conditions: bladder cancer cell line T-24, treatment for 24 h (table title), means of three experiments, read-out: IC50 (μM* ± SD) T-24
Method: (§1) Human bladder cancer (T-24) and human prostate carcinoma (PC-3) cell lines were obtained from American Type Culture Collection (ATCC; Manassas, VA USA). Cells were maintained in Dulbecco’s modified Eagle medium with 10% foetal bovine serum at 37 °C and 5% CO2. All the operations were carried out under strict aseptic conditions. The culture medium was removed to a centrifuge tube containing 9.0 ml complete culture medium and spanned at approximately 125 × g for 5 to 7 min. The cell layer was rinsed with 0.25% (w/v) trypsin- […] EDTA solution by which all traces of serum-containing inhibitor were removed. Trypsin EDTA solution 2.0 to 3.0 ml was added to a flask and cells were monitored under an inverted microscope until the cell layer was dispersed (usually within 5–15 min). A complete growth medium was added (6.0–8.0 ml), and cells were aspirated by gentle pipetting. The cell pellet was suspended with the recommended complete medium and dispensed into a 75 cm^2 culture flask. The culture vessel containing the complete growth medium was placed in the incubator for 24 h to at 37 °C. The cells were treated with different concentrations (0.39, 1.60, 6.25, 25, and 100 μg/ml) of each of the test compounds or doxorubicin, […], then the plates were examined under the inverted microscope and finally the MTT assay was carried out.
(§2) Anti-cancer activity of the newly synthesised compounds was evaluated in vitro against both T-24 and PC-3 cell lines according to the MTT method. Cells were seeded into 96-well plates (flat bottom) at a density of 10 000 cells/well for 24 h. The vial of MTT to be used was reconstituted with 3 ml of medium or balanced salt solution without phenol red and serum. then, a reconstituted MTT vial was added in an amount equal to 10% of the culture medium volume. Cultures were incubated for 2–4 h depending on the cell type and maximum cell density and removed from the incubator and the formazan crystals were dissolved via the addition of an amount of MTT solubilisation solution (M-8910) equal to the original culture medium volume. ROBONIK P2000 spectrophotometer at a wavelength of 570 nm was used to measure the colour intensity spectrophotometrically. The survival curve of both T-24 and PC-3 cells was obtained by plotting the percentage of surviving cells against the drug after each compound. The IC50 value for each test compound and the reference drug doxorubicin was calculated.
(§3) In this study, all the newly synthesised CP derivatives were subjected to anticancer activity evaluation against bladder (T-24) and prostate cancer (PC-3) cell lines. The compounds were evaluated for their activity using 5 doses determinations (100 μg/ml, 25 μg/ml, 6.25 μg/ml, 1.60 μg/ml, and 0.39 μg/ml). Their half-maximal inhibitory concentration (IC50) values were measured. Doxorubicin was chosen as a reference anticancer drug[65].

[2] = test system: human prostate carcinoma (PC-3) cell line; assay: MTT cell viability assay, PC-3 cells; format: cell-based; conditions: prostate cancer cell line PC-3, treatment for 24 h (table title), means of three experiments, read-out: IC50 (μM* ± SD) PC-3
Method: as §1, §2, §3

human DNA Topo II = target: T1, human DNA Topo II (Homo sapiens, UniProt P11388); assay: In vitro DNA Topo II-mediated relaxation assay (supercoiled pBR322); format: biochemical; conditions: for IC50: means of three experiments, read-out: Topo II IC50 (µM*±SD); for inhibition at 0.1 µM / inhibition at 1 µM / inhibition at 10 µM / inhibition at 100 µM: recombinant Topo II relaxation; for inhibition at 0.1 µM: compound at 0.1 μM, read-out: Percentage of inhibition of Topo II, 0.1 μM; for inhibition at 1 µM: compound at 1 μM, read-out: Percentage of inhibition of Topo II, 1 μM; for inhibition at 10 µM: compound at 10 μM, read-out: Percentage of inhibition of Topo II, 10 μM; for inhibition at 100 µM: compound at 100 μM, read-out: Percentage of inhibition of Topo II, 100 μM
T1 construct: purchased USB Corp., USA
T1 sequence (P11388 whole entry): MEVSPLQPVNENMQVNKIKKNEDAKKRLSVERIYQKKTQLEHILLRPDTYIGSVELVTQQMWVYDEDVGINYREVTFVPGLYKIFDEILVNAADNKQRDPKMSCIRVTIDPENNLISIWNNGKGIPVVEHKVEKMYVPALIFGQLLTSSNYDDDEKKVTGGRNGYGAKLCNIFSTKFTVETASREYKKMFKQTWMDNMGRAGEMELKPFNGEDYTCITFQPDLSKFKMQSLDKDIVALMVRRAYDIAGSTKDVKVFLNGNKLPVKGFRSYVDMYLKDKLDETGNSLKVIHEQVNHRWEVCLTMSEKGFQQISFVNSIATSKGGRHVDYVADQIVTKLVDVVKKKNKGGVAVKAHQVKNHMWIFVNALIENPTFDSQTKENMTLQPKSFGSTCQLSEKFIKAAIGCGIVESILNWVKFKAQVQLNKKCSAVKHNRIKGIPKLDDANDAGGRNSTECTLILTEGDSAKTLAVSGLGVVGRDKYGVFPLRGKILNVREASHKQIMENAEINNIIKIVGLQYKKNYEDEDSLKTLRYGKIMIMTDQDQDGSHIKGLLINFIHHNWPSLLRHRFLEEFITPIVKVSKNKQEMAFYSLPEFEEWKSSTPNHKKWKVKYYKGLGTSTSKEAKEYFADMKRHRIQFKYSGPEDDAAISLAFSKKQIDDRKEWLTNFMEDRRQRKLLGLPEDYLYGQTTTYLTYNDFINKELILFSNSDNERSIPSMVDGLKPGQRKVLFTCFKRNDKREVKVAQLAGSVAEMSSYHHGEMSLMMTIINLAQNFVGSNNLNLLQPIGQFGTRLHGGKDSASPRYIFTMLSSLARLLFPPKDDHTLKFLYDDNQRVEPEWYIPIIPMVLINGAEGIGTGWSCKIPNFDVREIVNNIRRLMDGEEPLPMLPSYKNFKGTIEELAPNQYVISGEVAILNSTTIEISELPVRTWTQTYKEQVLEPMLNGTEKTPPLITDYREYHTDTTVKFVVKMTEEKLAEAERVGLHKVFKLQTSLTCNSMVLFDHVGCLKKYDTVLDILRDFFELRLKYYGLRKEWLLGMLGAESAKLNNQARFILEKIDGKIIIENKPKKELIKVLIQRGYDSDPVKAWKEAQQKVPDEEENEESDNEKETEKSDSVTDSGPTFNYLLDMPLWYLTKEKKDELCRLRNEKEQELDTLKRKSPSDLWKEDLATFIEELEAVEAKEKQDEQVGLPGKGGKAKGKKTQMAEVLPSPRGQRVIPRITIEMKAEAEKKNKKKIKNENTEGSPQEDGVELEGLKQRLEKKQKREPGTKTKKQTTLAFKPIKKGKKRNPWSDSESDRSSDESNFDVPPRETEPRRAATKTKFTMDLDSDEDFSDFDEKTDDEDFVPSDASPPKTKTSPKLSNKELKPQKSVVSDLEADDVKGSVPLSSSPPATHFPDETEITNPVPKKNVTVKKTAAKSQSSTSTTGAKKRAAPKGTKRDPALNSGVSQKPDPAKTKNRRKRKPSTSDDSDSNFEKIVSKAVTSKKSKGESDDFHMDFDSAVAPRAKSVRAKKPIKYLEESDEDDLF
Method: DNA Topo II inhibitory activities of the targeted compounds were measured as follows. A mixture of 100 ng of supercoiled pBR322 plasmid DNA (Fermentas, USA) and 2 units of human DNA Topo II (USB Corp., USA) was incubated with and without the prepared compounds in the assay buffer (10 µM Tris-HCl pH 7.9) containing 50 µM NaCl, 4 µM MgCl2, 1 µM EDTA, 1 µM ATP, and 15 mg/ml bovine serum albumin for 30 min at 37 °C. The reaction in a final volume of 10 µl was terminated by the addition of 4 µl of 6 µM EDTA. DNA samples were then electrophoresed on 1% agarose gel containing 0.5 µg/ml ethidium bromide in gel and buffer at high voltage (100–250 v) until the dye front has migrated about 4–6 cm down the gel. with a running buffer of TAE Tris-acetate– EDTA (TAE). Gels were stained for 15 min in water. DNA bands were visualised by transillumination with UV light and quantitated using AlphaI-maker TM (Alpha Innotech Corporation).
Well-known Topo II inhibitor doxorubicin was used as a positive control. The reaction products of Topo II relaxation assays were analysed by electrophoretic mobility and developed in ethidium bromide in the presence of UV light. The inhibitory activities were evaluated at 4 concentrations of 100, 10, 1, and 0.1 μM for all compounds as shown in (Figure 6). Topo II inhibitory activities of the tested compounds are summarised in (Table 2).

PC-3 cells = assay: Apoptosis determination by annexin V-FITC/PI assay, PC-3 cells; format: cell-based, human; conditions: at IC50, 24 h
Method: Apoptosis was evaluated using Annexin V fluorescein isothiocyanate (FITC) and propidium iodide (PI) using the Annexin V-FITC/PI apoptosis detection kit (Biovision, Mountain View, CA # K101-25). According to the manufacturer’s instructions after staining the cells with annexin V fluorescein (FITC) isothiocyanate. […] Cells were centrifuged and washed once with serum-containing media followed by resuspension in 500 µl of binding buffer. Then 5 µl Annexin V-FITC and 5 µl of (PI […]) were added and incubated for 5 min at room temperature in the dark. Analyses were performed using a flow cytometer (EX = 488 nm: Em = 530 nm) using a FITC signal detector and PI staining by a phycoerythrin emission signal detector.
While compound 8a induced both early and late apoptosis with 41.15- and 76.77-fold more than the control, respectively, and induced total apoptosis and necrosis with 14.87- and 2.44-fold more than the control, sequentially (Figure 16).

active caspase-3 = assay: Active caspase-3 ELISA in T-24 cells; format: cell-based, human; conditions: 6 at 5.68 μM, 8a at 3.36 μM; for Caspase-3 conc. (pg/ml* ± SD): means of three experiments
Method: The level of the apoptotic marker caspase-3 was measured using The Invitrogen Caspase-3 (active) Human ELISA Kit. The procedure of the used kit was done according to the manufacturer’s instructions.
Caspase-3 (a key effector enzyme) plays an important role in apoptosis since its activation leads to catalysing specific enzymes responsible for DNA fragmentation, which leads to cell death. Apoptosis induction in T-24 cells by compounds 6 and 8a was investigated via caspase 3, compared to doxorubicin as a reference drug.

Structure (SMILES)	IC50 [1] [µM]	IC50 [2] [µM]	IC50 (human DNA Topo II) [µM]	inhibition at 0.1 µM (human DNA Topo II) [%]	inhibition at 1 µM (human DNA Topo II) [%]	inhibition at 10 µM (human DNA Topo II) [%]	inhibition at 100 µM (human DNA Topo II) [%]	early apoptosis, fold more than the control (PC-3 cells) [fold]	late apoptosis, fold more than the control (PC-3 cells) [fold]	necrosis, fold more than the control (PC-3 cells) [fold]	total apoptosis, fold more than the control (PC-3 cells) [fold]	increase in level of active caspase-3 compared to the control (active caspase-3) [fold]	Caspase-3 conc. (pg/ml* ± SD) (active caspase-3) [pg/mL]
O=C1CC(=O)N(C(=O)CN2CCN(c3cc4c(cc3F)c(=O)c(C(=O)O)cn4C3CC3)CC2)N1 [Compound 6, 1-cyclopropyl-7-(4-(2-(3,5-dioxopyrazolidin-1-yl)-2-oxoethyl)piperazin-1-yl)-6-fluoro-4-oxo-1,4-dihydroquinoline-3-carboxylic acid]	5.68 ± 0.3	92.2 ± 4.69	0.92 ± 0.05	28	51.9	76.3	87.4	54.69	31.72	1.62	13.02	5.23	362.9 ± 8.58
O=C(CN1CCN(c2cc3c(cc2F)c(=O)c(C(=O)O)cn3C2CC2)CC1)NN=C1C(=O)Nc2ccccc21 [Compound 8a, 1-Cyclopropyl-6-fluoro-4-oxo-7-(4-(2-oxo-2-(2-(2-oxoindolin-3-ylidene)hydrazinyl)ethyl)piperazin-1-yl)-1,4-dihydroquinoline-3-carboxylic acid]	3.36 ± 0.19	11 ± 0.56	0.74 ± 0.04	32.5	50.3	77.4	91.6	41.15	76.77	2.44	14.87	7.6	527.6 ± 8.39
